Legend:
[1] = test system: RTV-652, patient 98-652 (RT V108I); experiment: Phenotypic susceptibility assay (patient RTV); format: cell-based, HIV-1; conditions: patient RTV pool; below 1 = increased susceptibility
Description: (§1) The resistance test vectors containing a functional luciferase gene cassette were constructed and host cells were transfected with the resistance test vector DNA. The resistant test vectors contained patient-derived reverse transcriptase and protease sequences that were either susceptible or resistant to the antiretroviral agents, such as nucleoside reverse transcriptase inhibitors, non-nucleoside reverse transcriptase inhibitors and protease inhibitors. […] The IC50 values were determined by plotting percent drug inhibition vs. log10 drug concentration.
(§2) Host cells were seeded in 10-cm-diameter dishes and were transfected several days after plating with resistance test vector plasmid DNA and the envelope expression vector. […] HIV capsid protein (p24) levels in the harvested cell culture media were determined by an EIA method as described by the manufacturer (SIAC; Frederick, Md.). […] The inhibitory effect of the drug was determined using the following equation: % luciferase inhibition=1−(RLUluc [drug]÷RLUluc)×100 where RLUluc [drug] is the relative light unit of luciferase activity in infected cells in the presence of drug and RLUluc is the Relative Light Unit of luciferase activity in infected cells in the absence of drug. […]

[2] = test system: RTV-300, patient 97-300 (RT K32N, M184V, Y188L); experiment: Phenotypic susceptibility assay (patient RTV); format: cell-based, HIV-1; conditions: patient RTV pool
Description: as §1, §2

Row | SMILES | change in susceptibility (fold, IC50) [1] | decrease in susceptibility (fold, IC50) [2]
1 | CC(C)Nc1cccnc1N1CCN(C(=O)c2cc3cc(NS(C)(=O)=O)ccc3[nH]2)CC1 [delavirdine] | 0.97 fold | 25 fold
2 | Cc1ccnc2c1NC(=O)c1cccnc1N2C1CC1 [nevirapine] | 5 fold | greater than 800 fold

From patent US7037644B1, “Means and methods for monitoring non-nucleoside reverse transcriptase inhibitor antiretroviral therapy and guiding therapeutic decisions in the treatment of HIV/AIDS” (ViroLogic, Inc., priority 1998, dated 2006)
